Measurements reported in EP3964511A1, “BIOORTHOGONAL CHOLESTEROL PROBE AND USES THEREOF” (Universidad del País Vasco/Euskal Herriko Unibertsitatea, priority 2020, dated 2022).

How the values were obtained:
HeLa cells = test: Competition assay of cellular uptake against natural chol; format: cell-based, Human; conditions: probe fixed at 5 µM, chol 0-1 mM, 1 h co-incubation; result stated at 500 µM chol
Protocol: A competition assay was designed to test chol-N3 and fluorescently pre-labeled chol-N3 uptake by cells. HeLa cells were seeded onto coverslips in DMEM supplemented with 10% FBS, and co-incubated with a fixed concentration of chol-N3 (5 µM) or with chol-N3 (5 µM) labeled with 10 µM AF 488-DBCO and an increasing concentration of natural chol (ranging from 0 to 1 mM) added externally to the cells. After 1h co-incubation of cells with the mixture, cells were stained in vivo with 25 µM AF 488-DBCO for 60 min, counterstained with DAPI, fixed, and imaged using a ZEISS apotome. Alternaltively, HeLa cells were treated with 5 µM Bodipy-chol in DMEM supplemented with 10% FBS and co-incubated with increasing concentration of natural chol (0-1mM) for 1h. Cells were fixed, and counterstained with DAPI.
Human cervix adenocarcinoma HeLa cells and human bone marrow neuroblast SH-SY5Y cells were obtained from ATCC. HeLa cells were maintained in DMEM (Dulbecco's modified Eagle's medium) supplemented with 10% FBS, 2 mM Glutamax, 100 units/ml penicillin, and 100 µg/ml streptomycin (Life Technologies) at 37 °C with 5% CO2. SH-SY5Y cells were maintained in DMEM/F12 (F12 and Dulbecco's modified Eagle's medium) supplemented with 10% FBS and 1% penicillin and streptomycin. (Life Technologies) at 37°C with 5% CO2.

[1] = In vitro laurdan generalized polarization (GP) in LUVs; format: physicochemical; conditions: POPC LUVs with 10% sterol (labeled adduct 90%:8%:2%), compared with chol
Protocol: Large unilamellar vesicles (LUV) composed of POPC:chol (90%:10%), POPC:chol-N3 (90%:10%) or POPC/chol-N3/chol-N3-AF 647-DBCO (90%:8%:2%) were prepared following the extrusion method described by Cebecauer M. et al. (Membrane Lipid Nanodomains. Chem Rev, 2018). Laurdan was added in the organic phase before solvent evaporation. Laurdan labeled liposomes at a concentration of 30 µM were kept under continuous stirring, and the determination of GP profiles at different temperatures was performed. All fluorescence measurements were made using an SLM Aminco series 2 (Spectronic Instruments, Rochester, NY) spectrofluorimeter as previously described (Sheng R. et al. Nat Commun 3, 1249, 2012). To quantify changes in the Laurdan emission spectrum, generalized polarization (GP) values were calculated as follow: GP = (IB-IR)/(IB+IR), where IB (at 440 nm) and IR (at 490 nm) correspond to the intensities at the blue and red edges of the emission maxima, respectively (Bernardino de la Serna J et al., J Biol Chem 279, 40715-40722, 2004 and Sezgin E et al., Nat Rev Mol Cell Biol 18, 361-374, 2017).

Q: Which results are given for CC(CCCN=[N+]=[N-])C1CCC2C3CC=C4CC(O)CCC4(C)C3CCC12C (centres unmarked) [chol-N3, 17-(5-azidopentan-2-yl)-10,13-dimethyl-2,3,4,7,8,9,10,11,12,13,14,15,16,17-tetradecahydro-1H-cyclopenta[a]phenanthren-3-ol]?
A: uptake in the presence of increasing extracellular chol (HeLa cells): virtually abolished; membrane order (laurdan generalized polarization, GP) versus temperature [1]: same membrane order behavior irrespective of the chol analog used
